Columns and labels:
Format in all cases: cell-based
[1] = system: human cancer cell line; assay: Human cancer cell line activity compared to dolastatin 10
[2] = system: SK-MEL-3; assay: NCI human cancer cell line test, Melanoma SK-MEL-3
Description: (§1) Only two hundred years ago, many diseases ravaged humankind. Many of these diseases have been controlled or eradicated. In the development of the means to treat or control these diseases, work with the appropriate common experimental animals was of critical importance. With the various types of cancers, and with the HIV virus, such work is presently ongoing. The research for the treatment of various types of cancer is coordinated by the National Cancer Institute (NCI).NCI, as a government entity, has been charged with assisting anti-cancer research. To establish whether a substance has anti cancer activity, NCI has established a protocol. This protocol, which involves testing a substance against a cell line panel containing 60 human tumor cell lines, has been verified, and is accepted in scientific circles. This protocol, and the established statistical means of evaluating the results obtained therefrom have been amply described in the literature. See e.g. Principles & Practice of Oncology PPO Updates, Volume 3, Number 10, October 1989, by Michael R. Boyd, M.D., Ph.D., for a description of the protocol. The statistical analysis is explained in "Display and Analysis of Patterns of Differential Activity of Drugs Against Human Tumor Cell Lines: Development of Mean Graph and COMPARE Algorithm" Journal of the National Cancer Institute Reports Vol. 81, No. 14, Pg. 1088, Jul. 14, 1989, by K. D. Paull et al. Both articles are incorporated herein by this reference as if fully set forth.
(§2) The structural modifications of dolastatin 10 whose design and synthesis are described herein were evaluated for antineoplastic activity. This evaluation was conducted using the standard protocols established by National Cancer Institute (NCI) as described above. These protocols do evaluate whether the substances in question have antineoplastic activity against certain human cancer cell lines derived from human cancer patients. Substantial activity was found in those compounds tested. The antineoplastic activity of the compounds is reported below in Table 1. The results of the 60 cell line NCI in vitro testing of compound 6b conducted Jun. 22, 1992, is reported below in Table 2.

[3] = system: NCI-460; assay: NCI human cancer cell line test, Lung-NSC NCI-460
Description: as §1, §2

[4] = system: KM20L2; assay: NCI human cancer cell line test, Colon KM20L2
Description: as §1, §2

[5] = system: A498; assay: NCI human cancer cell line test, Renal A498
Description: as §1, §2

[6] = system: P-388; assay: Mouse leukemia cell P-388 growth inhibition
Procedure: as §2

[7] = system: SF-295; assay: NCI human cancer cell line test, CNS SF-295
Description: as §1, §2

[8] = system: OVCAR-3; assay: NCI human cancer cell line test, Ovarian OVCAR-3
Description: as §1, §2

Substance | human cancer cell line activity as compared to dolastatin 10 [1] | GI-50 [2] | LC-50 [2] | TGI [2] | GI-50 [3] | LC-50 [3] | TGI [3] | GI-50 [4] | LC-50 [4] | TGI [4] | GI-50 [5] | LC-50 [5] | TGI [5] | ED-50 [6] | GI-50 [7] | LC-50 [7] | TGI [7] | GI-50 [8] | LC-50 [8] | TGI [8]
R-Doe-isodolastatin 10 | did not show any significant difference | – | – | – | – | – | – | – | – | – | – | – | – | – | – | – | – | – | – | –
[2S-[1[1R*(R*),2S*],2R*[1S*,2S*]]]-N,N-dimethyl-L-valyl-N-[2-methoxy-4-[2- [1-methoxy-2-methyl-3-oxo-3-[[2-phenyl-ethyl]amino]propyl]-1-pyrrolidinyl-1-(methylpropyl)-4-oxobutyl]-N-methyl-L-valineamide [Compound 6b] | – | 0.000012 µg/mL | < 0.0001 µg/mL | < 0.1 ng/mL | 0.000005 µg/mL | < 0.0001 µg/mL | < 0.1 ng/mL | 0.000005 µg/mL | < 0.0001 µg/mL | < 0.1 ng/mL | 0.000013 µg/mL | < 0.0001 µg/mL | < 0.1 ng/mL | 0.0005 mg/mL | 0.000014 µg/mL | < 0.0001 µg/mL | 0.042 ng/mL | 0.000004 µg/mL | < 0.0001 µg/mL | 0.027 ng/mL
[2S-[1[1R*(R*),2S*],2R*[1S*,2S*]]]-N,N-dimethyl-L-valyl-N-[2-methoxy-4-[2- [1-methoxy-2-methyl-3-oxo-3-[[3-phenyl-propyl]amino]propyl]-1-pyrrolidinyl- 1-(methylpropyl)-4-oxobutyl]-N-methyl-L-valineamide [Compound 6c] | – | 0.00031 µg/mL | < 0.01 µg/mL | < 10 ng/mL | 0.00031 µg/mL | < 0.01 µg/mL | < 10 ng/mL | 0.00033 µg/mL | < 0.01 µg/mL | < 10 ng/mL | 0.00039 µg/mL | < 0.01 µg/mL | < 10 ng/mL | 0.00044 mg/mL | 0.00028 µg/mL | < 0.01 µg/mL | 0.79 ng/mL | 0.00018 µg/mL | < 0.01 µg/mL | 0.54 ng/mL
[2S-[1[1R*(R*),2S*],2R*[1S*,2S*]]]-N,N-dimethyl-L-valyl-N-[2-methoxy-4-[2- [1-methoxy-2-methyl-3-oxo-3-benzylamino-propyl]-1-pyrrolidinyl-1-(methylpropyl)-4-oxobutyl]-N-methyl-L-valineamide [Compound 6a] | – | < 0.0001 µg/mL | < 0.0001 µg/mL | < 0.1 ng/mL | < 0.0001 µg/mL | < 0.0001 µg/mL | < 0.1 ng/mL | < 0.0001 µg/mL | < 0.0001 µg/mL | < 0.1 ng/mL | < 0.0001 µg/mL | < 0.0001 µg/mL | < 0.1 ng/mL | 0.00378 mg/mL | < 0.0001 µg/mL | < 0.0001 µg/mL | < 0.1 ng/mL | < 0.0001 µg/mL | < 0.0001 µg/mL | < 0.1 ng/mL
